Measured values reported in patent US20100221502A1, “Anthrapyridone Compound and Salt Thereof, Magenta Ink Composition Containing the Anthrapyridone Compound, and Colored Article” (priority 2005, published 2010).

Legend:
Type in all cases: physicochemical
[1] = Ozone gas fastness test of recorded image; conditions: any of glossy papers of CANON INC. and SEIKO-EPSON CORPORATION
Method: Using an ink jet printer (manufactured by Canon Inc., trade name: Pixus 860i), inkjet recording was performed on glossy paper (manufactured by Canon Inc., trade name: Professional Photo Paper PR-101) having an ink image-receiving layer containing porous white inorganic substance and photo paper (glossy) manufactured by SEIKO-EPSON CORPORATION. In inkjet recording, an image pattern was made to obtain gradations of several stages in printing density and a print was made. Using an ozone weatherometer (manufactured by Suga Test Instruments Co., Ltd.), pieces of printed testing paper of glossy paper manufactured by Canon, Inc. and glossy paper manufactured by SEIKO-EPSON CORPORATION were left for 3 hours under the circumstances of an ozone concentration of 12 ppm, a humidity of 60% RH and a temperature of 24° C. Color difference (ΔE) before and after the test was measured and evaluation was performed on 3 levels. [formula] [formula] [formula]

[2] = Moisture fastness test of recorded image; parameters: key: ∘: Bleed is not observed.; Δ: Bleed is observed on small degree.; ×: Bleed is observed on large degree; conditions: 168 hours, 30° C., 85% RH, bleed by visual observation
Method: (§1) Using an ink jet printer (manufactured by Canon Inc., trade name: Pixus 860i), inkjet recording was performed on glossy paper (manufactured by Canon Inc., trade name: Professional Photo Paper PR-101) having an ink image-receiving layer containing porous white inorganic substance and photo paper (glossy) manufactured by SEIKO-EPSON CORPORATION. In inkjet recording, an image pattern was made to obtain gradations of several stages in printing density and a print was made.
Using a thermo-hygrostat (manufactured by OHKEN, Co., LTD), pieces of printed testing paper of glossy paper manufactured by Canon, Inc. and glossy paper manufactured by SEIKO-EPSON CORPORATION were left for 168 hours at a temperature of 30° C. and a humidity of 85% RH. Bleed property before and after the test was determined by visual observation and evaluated on 3 levels.
∘: Bleed is not observed.
Δ: Bleed is observed on small degree.
×: Bleed is observed on large degree.

[3] = Evaluation of hue on glossy paper (L*, a*, b*, C* of inkjet recorded image); parameters: key to Lightness L*: CIELAB L* lightness value; key to Chromaticity a*: CIELAB a* chromaticity value; key to Chromaticity b*: CIELAB b* chromaticity value; conditions: for Chroma C*: C*=((a*)^2+(b*)^2)^1/2; for Chromaticity a* / Chromaticity b* / Lightness L*: ink with 6.0 parts compound
Source text: The compound (Compound Example No. 1) obtained in the above Example 1 was used to prepare a solution of the composition shown in the following Table 2, which was filtrated with a 0.45 μm membrane filter for removing insoluble matter to obtain each water-based ink composition for inkjet recording. And ion-exchanged water was used as water. In addition, the pH of the ink composition was adjusted to pH=8 to 10 with a 25% caustic soda aqueous solution, and water was further added so that the whole weight was 100 parts. Example 5 is the test using the compound obtained in Example 1.
as §1
For the hue and vividness of recorded image, printed recording paper was measured using a Color Calibration Systems (trade name: GRETAG SPM50, manufactured by GretagMacbeth AG) to calculate values of L*, a* and b*, and chroma (C*) showing vividness was calculated from chromaticity (a*, b*) by C*=((a*)^2+(b*)^2)^1/2. The hue was evaluated by comparing with a sample of standard magenta in Japan Color manufactured by JPMA (Industry Association: Japan Printing Machinery Association).
In this connection, paper used for standard magenta in Japan Color was Japan Color Standard Paper.

[4] = Xenon light fastness test of recorded image; conditions: any of glossy papers of CANON INC. and SEIKO-EPSON CORPORATION
Method: as §1
Using a xenon weatherometer Ci4000 (manufactured by ATLAS Electric Devices Co.), pieces of printed testing paper of glossy paper manufactured by Canon, Inc. and glossy paper manufactured by SEIKO-EPSON CORPORATION, on which an air layer was provided and a glass plate having a thickness of 2 mm was set up, were irradiated for 50 hours at an illuminance of 0.36 W/m^2 under the circumstances of a humidity of 60% RH and a temperature of 24° C. Color difference (ΔE) before and after the test was measured and the evaluation was performed on 3 levels.

[5] = Glossy paper manufactured by CANON INC.
[6] = Glossy paper manufactured by SEIKO-EPSON CORPORATION
[7] = Glossy paper manufactured by Canon Inc.

Ozone gas fastness (in words) [1] | Moisture fastness [2, 5] | Moisture fastness [2, 6] | Chroma C* [3, 7] | Chromaticity a* [3, 7] | Chromaticity b* [3, 7] | Lightness L* [3, 7] | Chroma C* [3, 6] | Chromaticity a* [3, 6] | Chromaticity b* [3, 6] | Lightness L* [3, 6] | Light fastness (in words) [4] | Structure (SMILES)
a drawback in ozone gas fastness | ∘ | ∘ | 81.3 | 81.0 | −6.7 | 49.8 | 80.4 | 79.9 | −9.5 | 49.5 | has a problem in light fastness | Cn1c(=O)cc2c3c(c(Nc4cc(Nc5nc(O)nc(Nc6cc(S(=O)(=O)O)ccc6S(=O)(=O)O)n5)ccc4S(=O)(=O)O)ccc31)C(=O)c1ccccc1-2 [Comparative Example 1, reference compound]
– | ∘ | ∘ | 88.2 | 88.2 | −2.9 | 57.8 | 82.3 | 82.3 | −1.7 | 56.1 | – | O=C(c1cccc(S(=O)(=O)O)c1)c1c2c3c(c(Nc4cc(Nc5nc(O)nc(Nc6ccccc6S(=O)(=O)O)n5)c(S(=O)(=O)O)cc4S(=O)(=O)O)cc(Oc4ccc(-c5ccc(S(=O)(=O)O)cc5)cc4S(=O)(=O)O)c3[nH]c1=O)C(=O)c1ccccc1-2 [Example 5 (No. 1)]
– | ∘ | ∘ | 82.1 | 82.1 | 0.5 | 55.4 | 80.5 | 80.6 | −2.2 | 56.1 | – | O=C(O)c1ccccc1Nc1nc(O)nc(Nc2cc(Nc3cc(Oc4ccc(-c5ccc(S(=O)(=O)O)cc5)cc4S(=O)(=O)O)c4[nH]c(=O)c(C(=O)c5cccc(S(=O)(=O)O)c5)c5c4c3C(=O)c3ccccc3-5)c(S(=O)(=O)O)cc2S(=O)(=O)O)n1 [Example 6 (No. 8)]
– | ∘ | ∘ | 78.6 | 78.7 | 1.0 | 54.8 | 77.6 | 77.4 | −2.6 | 57.2 | – | O=C(O)c1cc(Nc2nc(O)nc(Nc3cc(Nc4cc(Oc5ccc(-c6ccc(S(=O)(=O)O)cc6)cc5S(=O)(=O)O)c5[nH]c(=O)c(C(=O)c6cccc(S(=O)(=O)O)c6)c6c5c4C(=O)c4ccccc4-6)c(S(=O)(=O)O)cc3S(=O)(=O)O)n2)cc(C(=O)O)c1 [Example 7 (No. 11)]
